Assay results published in patent publication US10851071B2, “M-dihydroxybenzene derivative crystal and salt, and manufacturing method thereof” (Chia Tai Tianqing Pharmaceutical Group Co., Ltd., priority 2016, dated 2020).

How the values were obtained:
[1] = Rough solubility test of A-type crystal and salts of the compound of formula (I); conditions: for solubility: thermodynamic from solid; for Approximate solubility: room temperature
Experimental: Hydrochloric acid, acetic acid, sodium acetate, sodium chloride, 5% glucose solution, water (buffer is a buffer solution of acetic acid/sodium acetate).
2 mg of a sample was weighed, and dissolved by adding a solvent (10 μL) thereto at room temperature. […] The total amount of the added solvents was up to 2 mL.

[2] = Dynamic vapour sorption (DVS), wet weight gain; type: physicochemical; conditions: 25±1° C. and 80±2% RH
BT-474 tumor cells = test: In vivo pharmacodynamic evaluation in BT-474 breast cancer transplanted tumors in nude mice
Experimental: BT-474 tumor cells were subcutaneously inoculated into the right axillary fossa of nude mice at 5×10^6/mouse to form transplanted tumors. When the volume thereof reached 100-200 mm^3, the animals were randomly grouped based on tumor volumes: 6 mice in negative control group; 6 mice in positive control group; and 6 mice in each test group. The mice in the treatment groups were intravenously injected with different concentrations of positive drug Ganetespib (20 mg/kg) and the compound of formula (I) (10 mg/kg and 20 mg/kg) three times a week, and the mice in the negative control group were administrated with equal amount of vehicles at the same time. The length (A) and width (B) of the tumor were measured twice a week by using a vernier caliper, and the tumor volume V=A×B^2/2 was thereby calculated. The calculation of relative tumor volume (RTV) follows: RTV=Vt/V0, wherein Vt was the tumor volume at the end of administration, and V0 was the tumor volume measured before administration to each cage. The pharmacodynamic evaluation index of antitumor activity was the relative tumor proliferation rate T/C (%), and the calculation formula was: TIC (%)=TRTV/CRTV×100%, wherein TRTV: RTV of the treatment group; CRTV: RTV of the negative control group. Therapeutic efficacy evaluation criteria: T/C %>60% was ineffective; T/C %≤60% with P<0.05 after being statistically processed was effective. […]

[3] = Tissue distribution in SD rats after tail vein injection (LC/MS/MS); type: in vivo
Experimental: SD rats were used as test animals, and the drug concentrations in plasma, lung and breast tissues of rats at different times after administrating the compound of formula (I) via the injection in tail vein were measured by using LC/MS/MS method. The tissue distribution of the compound of the present invention in rats was investigated, and pharmacokinetic characteristics thereof were evaluated.
Appropriate amounts of samples were weighed, and Luminespib, Ganetespib and the compound of formula (I) of the present invention were respectively formulated into a clear solution with a concentration of 2.5 mg/mL for intravenous injection, wherein the solvent was consisted of 10% (v/v) of DMSO, 14% (v/v) of polyoxyethylene hydrogenated castor oil 40, and 76% (v/v) of 5% aqueous glucose solution.
9 SD male rats were divided into three groups, three rats per group. The rats were administered intravenously through tail vein at a dose of 1 mg/kg after being normally fed.
Samples of blood, lung and breast tissues were collected from the rats in three groups at 0.5, 6, and 24 hours after administration, respectively. The blood sample was separated by centrifugation at 4° C., 3000 rpm/min for 15 min within half an hour after collection, so as to obtain plasma sample. The resulting plasma sample was deposited in polypropylene tubes and stored at −80° C. for LC/MS/MS analysis. After blood sample was collected, the animals were sacrificed with CO2, and the tissue samples were collected. Each tissue sample was washed twice with cold deionized water and adhered onto filter paper. Each tissue sample was then homogenized several times in MeOH/15 mM PBS (1:2) (5 mL MeOH/15 mM PBS (1:2) per gram of tissue, with dilution coefficient of 6), to ensure the formation of homogeneous phase. The whole process was carried out at a freezing point temperature. The homogenized samples were quickly frozen by using dry ice and stored at −80° C. for bioassay.
The contents of the test compounds in the plasma, lung and breast tissues of the rats after the administration by injection were measured with LC/MS/MS method.

[4] = Crystal stability under humidity, heat and grinding; type: physicochemical; conditions: RT/92.5% RH 5 and 10 days; 60° C. 5 and 10 days; grinded 10/20/30 min
[5] = 0.9% NaCl solution, saline or isotonic
[6] = 5% glucose solution, saline or isotonic
[7] = acetic acid/sodium acetate buffer pH 3.5, pH 3.5, aqueous buffer
[8] = acetic acid/sodium acetate buffer pH 4.5, pH 4.5, aqueous buffer
[9] = acetic acid/sodium acetate buffer pH 5.5, pH 5.5, aqueous buffer
[10] = acetic acid/sodium acetate buffer pH 6.8, pH 6.8, aqueous buffer
[11] = acetic acid/sodium acetate buffer pH 7.5, pH 7.5, aqueous buffer
[12] = rats, injection dose of 1 mg/kg, same dose

Row | Molecule | solubility [1, 5] [µg/mL] | solubility [1, 6] [µg/mL] | solubility [1, 7] [µg/mL] | solubility [1, 8] [µg/mL] | solubility [1, 9] [µg/mL] | solubility [1, 10] [µg/mL] | solubility [1, 11] [µg/mL] | solubility ([1]; water) [µg/mL] | wet weight gain ΔW % [2] | Lung exposure ([3]; SD rats, 1 mg/kg iv) [µM·h] | other results
1 | maleate |  |  |  |  |  |  |  |  | about 0.379% |  | Approximate solubility ([1]; 0.9% NaCl solution): <2000 µg/mL; Approximate solubility ([1]; 5% glucose solution): 2100 to 2300 µg/mL; Approximate solubility ([1]; pH 3.5 buffer (acetic acid/sodium acetate)): 6500 to 7500 µg/mL; Approximate solubility ([1]; pH 4.5 buffer): 3400 to 3900 µg/mL; Approximate solubility ([1]; pH 5.5 buffer): <2000 µg/mL; Approximate solubility ([1]; pH 6.8 buffer): <2000 µg/mL; Approximate solubility ([1]; pH 7.5 buffer): <2000 µg/mL; Approximate solubility ([1]; water): 2200 to 2600 µg/mL
2 | CCNC(=O)c1onc(-c2cc(C(C)C)c(O)cc2O)c1-c1ccc2c(c1)CCNC2 [Compound of formula (I), 3(2,4dihydroxy-5-isopropylphenyl)-N-ethyl-4(1,2,3,4-tetrahydroisoquinolin-6-yl)isoxazole-5-carboxamide] |  |  |  |  |  |  |  |  |  | 30.933 | TGI (%) (BT-474 tumor cells; 10 mpk iv three times a week, day 35 (administration stopped day 18)): 120%; antitumor effect compared with Ganetespib (in words) (BT-474 tumor cells; 10 mpk versus 20 mpk of Ganetespib, BT-474 transplanted mouse model): significantly superior antitumor effect; Breast tissue exposure ([3]; SD rats, 1 mg/kg iv): 7.226 µM·h; Plasma exposure ([3]; SD rats, 1 mg/kg iv): 0.415 µM·h; concentrations in lung and breast tissues compared with Luminespib and Ganetespib (in words) [3, 12]: significantly higher; tissue exposures compared with Luminespib and Ganetespib (in words) [3, 12]: significantly greater; solubility depending on buffer pH (in words) ([1]; conclusion from Table 5): higher solubility in the buffer of pH 3.5-4.5
3 | CCNC(=O)c1onc(-c2cc(C(C)C)c(O)cc2O)c1-c1ccc2c(c1)CCNC2 [A-type crystal] | < 1000 | < 1000 | 80000 to 100000 | 30000 to 50000 | < 1000 | < 1000 | < 1000 | < 1000 | about 0.45% |  | solubility ([1]; 0.01N HCl, simulated gastric fluid): 800 to 1000 µg/mL; solubility ([1]; 0.1N HCl, simulated gastric fluid): < 1000 µg/mL; solubility ([1]; acetic acid/sodium acetate buffer pH 6.5, pH 6.5, aqueous buffer): < 1000 µg/mL; crystal transformation [4]: no crystal transformation

Further lines, with some results ahead:

Row | solubility [1, 5] [µg/mL] | solubility [1, 6] [µg/mL] | solubility [1, 7] [µg/mL] | solubility [1, 8] [µg/mL] | solubility [1, 9] [µg/mL] | solubility [1, 10] [µg/mL] | solubility [1, 11] [µg/mL] | solubility ([1]; water) [µg/mL] | wet weight gain ΔW % [2] | Lung exposure ([3]; SD rats, 1 mg/kg iv) [µM·h] | Molecule | other results
4 | < 2000 | 4600 to 5500 | 9500 to 14200 | 5800 to 7300 | < 2000 | < 2000 | < 2000 | 5300 to 6300 |  |  | CCNC(=O)c1onc(-c2cc(C(C)C)c(O)cc2O)c1-c1ccc2c(c1)CCNC2.Cl [hydrochloride, 3-(2,4-dihydroxy-5-isopropylphenyl)-N-ethyl-4-(1,2,3,4tetrahydroisoquinolin-6-yl)isoxazole-5-carboxamide hydrochloride] | solubility compared with A-type crystal (in words) ([1]; conclusion from Table 5): significantly higher solubilities than that of the A-type crystal
5 |  |  |  |  |  |  |  |  |  | 5.284 | CCNC(=O)c1noc(-c2cc(C(C)C)c(O)cc2O)c1-c1ccc(CN2CCOCC2)cc1 [Luminespib, 5[2,4dihydroxy-5-isopropylphenyl]-N-ethyl-4[4-(4-morpholinylmethyl)phenyl]-3-isoxazolecarboxamide, reference compound] | 
6 |  |  |  |  |  |  |  |  | about 0.081% |  | O=S(=O)(O)O [sulfate] | 
